Reference: US20190322697A1, “2'2'-CYCLIC DINUCLEOTIDES” (Institute of Organic Chemistry and Biochemistry, ASCR, V.V.I, priority 2018, published 2019)

What was measured:
AQ STING (G230A-R293Q) = target: T1, AQ STING (G230A-R293Q) (Homo sapiens, UniProt Q86WV6, G230A/H232R/R293Q); experiment: Differential Scanning Fluorimetry with AQ STING; assay type: binding; conditions: thermal shift, truncated human AQ STING 0.1 mg/ml, 150 μM CDN
T1 construct: truncated human WT STING or AQ STING (amino acid residues 140-343); 8xHis (N, cleaved yes); SUMO (N, cleaved yes); made in house; host or cells: E. coli Rosetta-gami B (DE3)
Description: (§1) Purified PCR products were cleaved with restriction enzymes BamHI (cat. # R0136S, NEB, Ipswich, USA) and NotI (cat. # R0189S, NEB, Ipswich, USA) and cloned into the pSUMO vector linearized with the identical enzymes.
(§2) DNase I (cat. # D5025, Sigma Aldrich, Czech Republic) and RNase A (cat. # R6513, Sigma Aldrich, Czech Republic) were added (final concentration 50 μg/ml) together with MgCl2 (final concentration 5 mmol·l^−1) to the homogenate and bacteria were lysed using French Press G-M™ High-Pressure Cell Press Homogenizer (1500 psi, 3 cycles). […] The resin was poured into a chromatography column, washed with 50 ml buffer A (50 mmol·l^−1 TrisCl (pH 8.0), 800 mmol·l^−1 NaCl, 3 mmol·l^−1 3-mercaptoethanol; 10% glycerol; 20 mmol·l^−1 imidazole) and 8-His-SUMO tagged STING proteins were eluted with 15 ml buffer A containing 300 mmol·l^−1 imidazole. […] Proteins were concentrated with Amicon® Ultra-15 10 K device (cat. # UFC901008, Merck Millipore, Billerica, USA) and flash frozen in liquid N2.
(§3) 20 μL solutions of the reaction mixtures were pipetted in triplicates into 96 well optical reaction plates and thermal denaturation of samples were performed on real time PCR cycler (LightCycler® 480 Instrument II—Roche, Basel, Switzerland). The first derivative of the thermal denaturation curves was performed to calculate denaturing temperatures of STING-CDN complexes and STING apoproteins. The thermal shift for each CDN was calculated by subtracting the average denaturing temperature of STING apoprotein from the average denaturing temperature of STING CDN complex.

WT STING [1] = target: T2, WT STING (Homo sapiens, UniProt Q86WV6, H232R); experiment: Digitonin assay using 293T wtSTING-FL reporter cells; assay type: cell-based; conditions: 293T wtSTING-FL cells, ISRE firefly luciferase reporter, digitonin buffer 30 min, then 5 hours
Excerpt: Two complementary oligonucleotides of the sequence […] […] […] […] […] […] […] The oligonucleotides were mixed in equal molar amounts, hybridized, and cleaved by restriction endonucleases HindIII (cat. #. R0104S, NEB, Ipswich, USA) and BglII (cat. # R0144S, NEB, Ipswich, USA). Ultimately, they were ligated into plasmid pGL4.27 (cat. # E6651, Promega, Madison, USA) linearized with the same enzymes. As result the sequence with four ISRE sites was placed upstream of the minimum promoter of firefly luciferase reporter gene.
After 5 minutes incubation at room temperature (RT), 250 μL of the mixture was added dropwise to the cells in one well. Cells were incubated 36 hours at 37° C. with 5% CO2, and then detached with 0.05% Trypsin and 0.22 g/L EDTA (both cat. # L0941, Biowest, Riverside, USA).
Transfected cells were seeded onto poly-D-lysine coated six well plates at density 50,000 cells per 1 cm^2 in DMEM medium with high glucose containing 10% heat inactivated FBS, 30 μg/mL blasticidin (cat. # ant-bl-05, InvivoGen, San Diego, USA), 0.06 mg/ml Penicillin G and 0.1 mg/ml Streptomycin Sulfate (both cat. #. L0018, Biowest, Riverside, USA). The medium was replenished every 3-4 days until visible colonies of cells resistant to blasticidin were formed.
Blasticidin resistant cells stably expressing WT STING were further transfected with pGL64.27-4×ISRE plasmid following the same procedure as described above. […] Homogeneous culture of stably double transfected cells was prepared by limiting dilution of cells in 96 well plates and wells with cells were selected that originated from a single cell.
The medium was removed next day and three fold serial dilutions of compounds in Digitonin buffer containing 50 mmol·l^−1 HEPES (cat. # H3375, Sigma Aldrich, Czech Republic) pH 7.0, 100 mmol·l^−1 KCl, 3 mmol·l^−1 MgCl2, 0.1 mmol·l^−1 DTT (cat. #D0632, Sigma Aldrich, Czech Republic), 85 mmol·l^−1 Sucrose (cat. # S7903, Sigma Aldrich, Czech Republic), 0.2% BSA (cat. # A2153, Sigma Aldrich, Czech Republic), 1 mmol·l^−1 ATP (cat. # A1852, Sigma Aldrich, Czech Republic), 0.1 mmol·l^−1 GTP (cat. # G8877, Sigma Aldrich, Czech Republic), and 10 μg/mL Digitonin A (cat. # D141, Sigma Aldrich, Czech Republic) were added to the cells. The buffer was removed after 30 minutes incubation at 37° C. with 5% CO2, the cells were washed once with 100 μl of cultivation medium, and 100 μl of medium was added to each well. The plates with cells were incubated for 5 hours at 37° C. with 5% CO2, 50 μl of the medium was removed and 30 μl of ONE-Glo™ Luciferase Assay System reagent (cat. # E6120, Promega, Madison, USA) was added to each well. Luminesce was read on Synergy H1 (Biotek, Winooski, USA).
Target sequence in this assay (Q86WV6 whole entry H232R): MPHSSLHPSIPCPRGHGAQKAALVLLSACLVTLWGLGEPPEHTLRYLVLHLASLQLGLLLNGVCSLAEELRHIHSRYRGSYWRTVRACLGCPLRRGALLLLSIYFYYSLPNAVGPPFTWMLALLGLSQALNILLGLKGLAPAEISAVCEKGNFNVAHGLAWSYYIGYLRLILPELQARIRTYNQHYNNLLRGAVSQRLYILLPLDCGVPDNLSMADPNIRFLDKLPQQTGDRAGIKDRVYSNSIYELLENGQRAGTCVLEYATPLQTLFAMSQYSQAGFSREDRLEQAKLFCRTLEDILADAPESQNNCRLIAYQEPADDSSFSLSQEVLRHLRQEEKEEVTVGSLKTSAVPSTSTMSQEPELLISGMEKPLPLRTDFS

WT STING [2] = target: T2, WT STING; experiment: Differential Scanning Fluorimetry with WT STING; assay type: binding; design: truncated human WT STING or AQ STING (amino acid residues 140-343); 8xHis (N, cleaved yes); SUMO (N, cleaved yes); made in house; host or cells: E. coli Rosetta-gami B (DE3); conditions: thermal shift, truncated human WT STING 0.1 mg/ml, 150 μM CDN
Description: as §1, §2, §3
Target sequence in this assay (Q86WV6 140-343 H232R): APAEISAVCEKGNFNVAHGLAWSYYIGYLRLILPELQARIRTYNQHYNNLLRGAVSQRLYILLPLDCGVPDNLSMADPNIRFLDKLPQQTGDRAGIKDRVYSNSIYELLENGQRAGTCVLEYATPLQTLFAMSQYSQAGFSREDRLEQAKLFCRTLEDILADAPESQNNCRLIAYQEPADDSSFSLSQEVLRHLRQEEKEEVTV

T1 sequence (Q86WV6 140-343 G230A/H232R/R293Q): as the sequence (Q86WV6 140-343 H232R) above, with G91A, R154Q counted along it

Row | DSF ΔTm AQ STING (AQ STING (G230A-R293Q)) | EC50 (WT STING [1]) | DSF ΔTm WT STING (WT STING [2]) | SMILES
1 | 11.5 °C | 1100 nM | 3.6 °C | Nc1ncnc2c1ncn2[C@@H]1O[C@@H]2COP(=O)(O)O[C@@H]3[C@H](F)[C@@H](COP(=O)(O)CO[C@@H]1[C@@H]2F)O[C@H]3n1cnc2c(N)ncnc21 [Example 8, (1S,6R,8R,9S,15R,17R,18R,19R)-8,17-bis(6-amino-9H-purin-9-yl)-18,19-difluoro-3,12-dihydroxy-2,4,7,10,13,16-hexaoxa-3,12-diphosphatricyclo[13.2.1.1^6,9]nonadecane 3,12-dioxide]
2 | 7.7 °C | 5800 nM | 2.6 °C | Nc1nc2c(ncn2[C@@H]2O[C@@H]3COP(=O)(O)O[C@H]4[C@@H](O)[C@H](n5cnc6c(=O)[nH]c(N)nc65)O[C@@H]4COP(=O)(O)O[C@H]3[C@H]2O)c(=O)[nH]1 [3′3′-c-di-GMP, reference compound]
3 | −0.3 °C | > 50000 nM | 0.0 °C | Nc1ncnc2c1ncn2[C@@H]1O[C@@H]2COP(=O)(O)CO[C@H]3[C@H](O)[C@@H](COP(=O)(O)CO[C@H]1[C@@H]2O)O[C@H]3n1cnc2c(N)ncnc21 [Example 6, (1S,7R,9R,10S,16R,18R,19R,20R)-9,18-bis(6-amino-9H-purin-9-yl)-4,13,19,20-tetrahydroxy-2,5,8,11,14,17-hexaoxa-4,13-diphosphatricyclo[14.2.1.1^7,10]icosane 4,13-dioxide]
4 | 19.4 °C | 30 nM | 11.5 °C | Nc1nc2c(ncn2[C@@H]2O[C@@H]3COP(=O)(O)O[C@@H]4[C@H](O)[C@@H](COP(=O)(O)O[C@@H]2[C@@H]3O)O[C@H]4n2cnc3c(N)ncnc32)c(=O)[nH]1 [2′2′-cGAMP, reference compound]
5 | 19.0 °C | 50 nM | 12.0 °C | Nc1nc2c(ncn2[C@@H]2O[C@@H]3COP(=O)(O)COC4C(O)[C@@H](COP(=O)(O)OC2C3O)O[C@H]4n2cnc3c(N)ncnc32)c(=O)[nH]1 (stereo partly drawn) [Example 3, 2-amino-9-((1R,6R,8R,9R,15R,17R,18R,19R)-8-(6-amino-9H-purin-9-yl)-3,12,18,19-tetrahydroxy-3,12-dioxido-2,4,7,10,13,16-hexaoxa-3,12-diphosphatricyclo[13.2.1.1^6]9nonadecan-17-yl)-1,9-dihydro-6H-purin-6-one]
6 | 9.3 °C | 300 nM | 2.6 °C | Nc1ncnc2c1ncn2[C@@H]1O[C@@H]2COP(=O)(O)O[C@H]3[C@@H](O)[C@H](n4cnc5c(N)ncnc54)O[C@@H]3COP(=O)(O)O[C@H]2[C@H]1O [3′3′-c-di-AMP, reference compound]
7 | 0.2 °C | > 50000 nM | −0.9 °C | Nc1ncnc2c1ncn2[C@@H]1O[C@@H]2COP(=O)(O)CO[C@H]3[C@H](O)[C@@H](COP(=O)(O)O[C@@H]1[C@@H]2O)O[C@H]3n1cnc2c(N)ncnc21 [Example 5, (1R,6R,8R,9S,15R,17R,18R,19R)-8,17-bis(6-amino-9H-purin-9-yl)-3,12,18,19-tetrahydroxy-2,4,7,10,13,16-hexaoxa-3,12-diphosphatricyclo[13.2.1.1^6,9]nonadecane 3,12-dioxide]
8 | 0.3 °C | > 50000 nM | 0.3 °C | Nc1nc2c(ncn2[C@@H]2O[C@@H]3COP(=O)(O)CO[C@@H]4[C@H](O)[C@@H](COP(=O)(O)CO[C@@H]2[C@@H]3O)O[C@H]4n2cnc3c(=O)[nH]c(N)nc32)c(=O)[nH]1 [Example 4, 9,9′-((1R,7R,9R,10R,16R,18R,19R,20R)-4,13,19,20-tetrahydroxy-4,13-dioxido-2,5,8,1 1,14,17-hexaoxa-4,13-diphosphatricyclo[14.2.1.1^7,10]icosane-9,18-diyl)bis(2-amino-1,9-dihydro-6H-purin-6-one)]
9 | 16.5 °C | 150 nM | 9.0 °C | Nc1nc2c(ncn2[C@@H]2O[C@@H]3COP(=O)(O)O[C@@H]4[C@H](O)[C@@H](COP(=O)(O)CO[C@@H]2[C@@H]3O)O[C@H]4n2cnc3c(N)ncnc32)c(=O)[nH]1 [Example 2, 2-amino-9-((1R,6R,8R,9R,15R,17R,18R,19R)-17-(6-amino-9H-purin-9-yl)-3,12,18,19-tetrahydroxy-3,12-dioxido-2,4,7,10,13,16-hexaoxa-3,12-diphosphatricyclo[13.2.1.1^6,9]nonadecan-8-yl)-1,9-dihydro-6H-purin-6-one]
10 | 0.0 °C | > 50000 nM | 0.0 °C | Nc1ncnc2c1ncn2[C@@H]1O[C@@H]2COP(=O)(O)CO[C@@H]3[C@@H](O)[C@@H](COP(=O)(O)CO[C@@H]1[C@H]2O)O[C@H]3n1cnc2c(N)ncnc21 [Example 7, (1R,7R,9R,10R,16R,18R,19S,20S)-9,18-bis(6-amino-9H-purin-9-yl)-4,13,19,20-tetrahydroxy-2,5,8,11,14,17-hexaoxa-4,13-diphosphatricyclo[14.2.1.1^7,10]icosane 4,13-dioxide]
11 | 22.9 °C | 30 nM | 15.2 °C | Nc1nc2c(ncn2[C@@H]2O[C@@H]3COP(=O)(O)CO[C@@H]4[C@H](F)[C@@H](COP(=O)(O)O[C@@H]2[C@@H]3F)O[C@H]4n2cnc3c(N)ncnc32)c(=O)[nH]1 [Example 9, 2-amino-9-((1S,6R,8R,9S,15R,17R,18R,19R)-8-(6-amino-9H-purin-9-yl)-18,19-difluoro-3,12-dihydroxy-3,12-dioxido-2,4,7,10,13,16-hexaoxa-3,12-diphosphatricyclo[13.2.1.1^6,9]nonadecan-17-yl)-1,9-dihydro-6H-purin-6-one]
